Assay results reported in patent US7928107B2, “Quinazolines useful as modulators of ion channels” (Vertex Pharmaceuticals Incorporated, priority 2004, dated 2011).

What follows are compounds tested against NaV 1.8 channel (Homo sapiens, UniProt Q9Y5Y9) (assay: Activity against NaV 1.8 channel (optical membrane potential assay)).
Type: cell-based
Experimental: Compounds of the invention are useful as antagonists of voltage-gated sodium ion channels. Antagonist properties of test compounds were assessed as follows. Cells expressing the NaV of interest were placed into microtiter plates. After an incubation period, the cells were stained with fluorescent dyes sensitive to the transmembrane potential. The test compounds were added to the microtiter plate. The cells were stimulated with either a chemical or electrical means to evoke a NaV dependent membrane potential change from unblocked channels, which was detected and measured with trans-membrane potential-sensitive dyes. Antagonists were detected as a decreased membrane potential response to the stimulus. The optical membrane potential assay utilized voltage-sensitive FRET sensors described by Gonzalez and Tsien (See, Gonzalez, J. E. and R. Y. Tsien (1995) “Voltage sensing by fluorescence resonance energy transfer in single cells” Biophys J 69(4): 1272-80, and Gonzalez, J. E. and R. Y. Tsien (1997) “Improved indicators of cell membrane potential that use fluorescence resonance energy transfer” Chem Biol 4(4): 269-77) in combination with instrumentation for measuring fluorescence changes such as the Voltage/Ion Probe Reader (VIPR®) (See, Gonzalez, J. E., K. Oades, et al. (1999) “Cell-based assays and instrumentation for screening ion-channel targets” Drug Discov Today 4(9): 431-439).
24 hours before the assay on VIPR, CHO cells endogenously expressing a NaV1.2 type voltage-gated NaV are seeded in 96-well poly-lysine coated plates at 60,000 cells per well. Other subtypes are performed in an analogous mode in a cell line expressing the NaV of interest. • 1) On the day of the assay, medium is aspirated and cells are washed twice with 225 μL of Bath Solution #2 (BS#2). • 2) A 15 uM CC2-DMPE solution is prepared by mixing 5 mM coumarin stock solution with 10% Pluronic 127 1:1 and then dissolving the mix in the appropriate volume of BS#2. • 3) After bath solution is removed from the 96-well plates, the cells are loaded with 80 μL of the CC2-DMPE solution. Plates are incubated in the dark for 30 minutes at room temperature. • 4) While the cells are being stained with coumarin, a […] solution in BS#2 is prepared. In addition to DiSBAC2(3), this solution should contain 0.75 mM ABSCl and […] (prepared from 10 mM EtOH stock, Sigma #V-5754). • 5) After 30 minutes, CC2-DMPE is removed and the cells are washed twice with 225 μL of BS#2. As before, the residual volume should be 40 μL. • 6) Upon removing the bath, the cells are loaded with 80 μL of the DiSBAC2(3) solution, after which test compound, dissolved in DMSO, is added to achieve the desired test concentration to each well from the drug addition plate and mixed thoroughly. The volume in the well should be roughly 121 μL. The cells are then incubated for 20-30 minutes. • 7) Once the incubation is complete, the cells are ready to be assayed on VIPR® with a sodium add back protocol. 120 μL of Bath solution #1 is added to stimulate the NaV dependent depolarization. […] was used as an antagonist positive control for block of the NaV channel.
Data are analyzed and reported as normalized ratios of background-subtracted emission intensities measured in the 460 nm and 580 nm channels. Background intensities are then subtracted from each assay channel. Background intensities are obtained by measuring the emission intensities during the same time periods from identically treated assay wells in which there are no cells. The response as a function of time is then reported as the ratios obtained using the following formula: […]
The data is further reduced by calculating the initial (Ri) and final (Rf) ratios. These are the average ratio values during part or all of the pre-stimulation period, and during sample points during the stimulation period. The response to the stimulus R=Rf/Ri is then calculated. […]

Chain of NaV 1.8 channel (Q9Y5Y9 whole entry): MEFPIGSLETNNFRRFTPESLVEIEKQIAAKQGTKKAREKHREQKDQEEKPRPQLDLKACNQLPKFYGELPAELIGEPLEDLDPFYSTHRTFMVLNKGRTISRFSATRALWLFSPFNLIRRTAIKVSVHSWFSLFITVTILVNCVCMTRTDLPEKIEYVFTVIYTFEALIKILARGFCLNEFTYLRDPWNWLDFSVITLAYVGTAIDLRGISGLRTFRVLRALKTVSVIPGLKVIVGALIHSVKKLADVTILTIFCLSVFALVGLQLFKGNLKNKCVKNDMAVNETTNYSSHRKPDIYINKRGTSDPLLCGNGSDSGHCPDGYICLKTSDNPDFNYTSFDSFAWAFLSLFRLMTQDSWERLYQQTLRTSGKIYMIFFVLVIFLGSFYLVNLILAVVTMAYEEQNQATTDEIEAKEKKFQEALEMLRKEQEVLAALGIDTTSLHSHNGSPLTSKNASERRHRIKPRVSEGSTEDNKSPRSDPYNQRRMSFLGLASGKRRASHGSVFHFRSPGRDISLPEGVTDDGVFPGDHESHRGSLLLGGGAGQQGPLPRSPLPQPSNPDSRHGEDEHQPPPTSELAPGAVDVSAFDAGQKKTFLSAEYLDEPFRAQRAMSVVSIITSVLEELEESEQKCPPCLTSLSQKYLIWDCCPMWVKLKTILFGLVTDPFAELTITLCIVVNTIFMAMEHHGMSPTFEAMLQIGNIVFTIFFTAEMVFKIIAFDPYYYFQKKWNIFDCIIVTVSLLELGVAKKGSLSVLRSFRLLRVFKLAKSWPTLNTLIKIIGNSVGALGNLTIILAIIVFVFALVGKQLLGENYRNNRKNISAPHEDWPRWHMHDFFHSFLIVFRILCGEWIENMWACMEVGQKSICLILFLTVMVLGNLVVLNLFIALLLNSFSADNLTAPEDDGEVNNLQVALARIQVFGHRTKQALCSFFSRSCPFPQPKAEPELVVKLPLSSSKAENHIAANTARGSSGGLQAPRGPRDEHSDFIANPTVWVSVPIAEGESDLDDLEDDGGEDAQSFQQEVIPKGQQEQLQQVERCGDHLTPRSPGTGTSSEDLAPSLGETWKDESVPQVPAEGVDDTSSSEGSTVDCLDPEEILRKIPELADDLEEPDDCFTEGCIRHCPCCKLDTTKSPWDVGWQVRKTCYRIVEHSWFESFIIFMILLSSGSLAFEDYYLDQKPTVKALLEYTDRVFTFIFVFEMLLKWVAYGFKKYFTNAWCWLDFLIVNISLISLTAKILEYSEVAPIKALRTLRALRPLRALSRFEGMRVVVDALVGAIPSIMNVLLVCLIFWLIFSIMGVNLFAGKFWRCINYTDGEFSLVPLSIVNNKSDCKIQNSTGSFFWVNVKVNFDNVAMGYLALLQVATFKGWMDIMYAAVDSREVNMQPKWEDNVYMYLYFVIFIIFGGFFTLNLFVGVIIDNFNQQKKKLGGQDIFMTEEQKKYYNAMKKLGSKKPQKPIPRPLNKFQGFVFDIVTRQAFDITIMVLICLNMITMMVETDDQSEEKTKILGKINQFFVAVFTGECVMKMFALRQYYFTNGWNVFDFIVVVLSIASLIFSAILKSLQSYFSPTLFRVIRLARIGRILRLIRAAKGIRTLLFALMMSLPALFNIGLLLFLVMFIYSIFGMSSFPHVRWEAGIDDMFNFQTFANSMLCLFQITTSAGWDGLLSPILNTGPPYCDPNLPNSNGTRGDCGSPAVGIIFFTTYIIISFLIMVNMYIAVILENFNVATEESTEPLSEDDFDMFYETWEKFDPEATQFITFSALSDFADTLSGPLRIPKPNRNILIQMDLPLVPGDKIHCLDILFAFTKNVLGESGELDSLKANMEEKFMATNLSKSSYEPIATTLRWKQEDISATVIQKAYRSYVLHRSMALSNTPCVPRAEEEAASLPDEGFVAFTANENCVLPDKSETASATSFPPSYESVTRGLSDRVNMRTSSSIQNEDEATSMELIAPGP

SMILES | IC50 [µM]
Cc1ccc2c(N3CCC[C@@H](NC(=O)O[C@H]4CCOC4)C3)nc(-c3ccccc3O)nc2c1 [Example 208, (S)-Tetrahydrofuran-3-yl (R)-1-(2-(2-hydroxyphenyl)-7-methylquinazolin-4-yl)piperidin-3-ylcarbamate] | < 2
Cc1ccc2c(N3CCN(C(=O)C(O)CCl)CC3)nc(-c3ccccc3O)nc2c1 (stereo not drawn) [Example 179, 3-Chloro-2-hydroxy-1-(4-(2-(2-hydroxyphenyl)-7-methylquinazolin-4-yl)piperazin-1-yl)propan-1-one] | > 10
Cc1ccc2c(N3CCN(C(=O)Oc4ccccc4)CC3CO)nc(-c3ccccc3O)nc2c1 (stereo not drawn) [Example 126, 3-Hydroxymethyl-4-[2-(2-hydroxy-phenyl)-7-methyl-quinazolin-4-yl]-piperazine-1-carboxylic acid phenyl ester] | > 10
Cc1ccc2c(N3CC[C@@H](NC(=O)C4CC4)C3)nc(-c3c(O)cccc3F)nc2c1 [Example 346, N—((R)-1-(2-(2-Fluoro-6-hydroxyphenyl)-7-methylquinazolin-4-yl)pyrrolidin-3-yl)cyclopropanecarboxamide] | 2 to 10
COCCOC(=O)NCC1CN(c2nc(-c3ccccc3O)nc3cc(C)ccc23)C1 [Example 419] | 2 to 10
Cc1ccc2c(N3CCC[C@@H](CNC(=O)O[C@H]4CCOC4)C3)nc(-c3c(O)cccc3F)nc2c1 [Example 231, (S)-Tetrahydrofuran-3-yl ((S)-1-(2-(2-fluoro-6-hydroxyphenyl)-7-methylquinazolin-4-yl)piperidin-3-yl)methylcarbamate] | 2 to 10
CCCOC(=O)NC[C@@H]1CCN(c2nc(-c3ccccc3O)nc3cc(C)ccc23)C1 [Example 367, Propyl ((S)-1-(2-(2-hydroxyphenyl)-7-methylquinazolin-4-yl)pyrrolidin-3-yl)methylcarbamate] | < 2
Cc1ccc2c(N3CCN(C(=O)OCC4CCCO4)CC3)nc(-c3ccccc3O)nc2c1 (stereo not drawn) [Example 185] | 2 to 10
O=C(OCc1ccncc1)N1CCN(c2nc(-c3ccccc3O)nc3ccccc23)CC1 [Example 116, (Pyridin-4-yl)methyl 4-(2-(2-hydroxyphenyl)quinazolin-4-yl)piperazine-1-carboxylate] | 2 to 10
Cc1ccc2c(N3CCN(C(=O)CC4CCOCC4)CC3)nc(-c3ccccc3O)nc2c1 [Example 105] | 2 to 10
Cc1ccc2c(N3CCC[C@@H](CNC(=O)O[C@H]4CCOC4)C3)nc(-c3ccccc3O)nc2c1 [Example 215, (S)-Tetrahydrofuran-3-yl ((S)-1-(2-(2-hydroxyphenyl)-7-methylquinazolin-4-yl)piperidin-3-yl)methylcarbamate] | > 10
Cc1ccc2c(N3CC[C@@H](NC(=O)O[C@H]4CCOC4)C3)nc(-c3c(O)cccc3F)nc2c1 [Example 345, (S)-Tetrahydrofuran-3-yl (R)-1-(2-(2-fluoro-6-hydroxyphenyl)-7-methylquinazolin-4-yl)pyrrolidin-3-ylcarbamate] | 2 to 10

More lines, now with the values ahead:

IC50 [µM] | SMILES
2 to 10 | CCCC(O)C(=O)N1CCN(c2nc(-c3ccccc3O)nc3ccccc23)CC1 (stereo not drawn) [Example 174, 2-Hydroxy-1-(4-(2-(2-hydroxyphenyl)quinazolin-4-yl)piperazin-1-yl)pentan-1-one]
> 10 | Cc1ccc2c(N3CCC[C@@H](CNC(=O)O[C@@H]4CCOC4)C3)nc(-c3ccccc3O)nc2c1 [Example 214, (R)-Tetrahydrofuran-3-yl ((S)-1-(2-(2-hydroxyphenyl)-7-methylquinazolin-4-yl)piperidin-3-yl)methylcarbamate]
2 to 10 | Cc1ccc2c(N3CCN(C(=O)C(O)CC(C)C)CC3)nc(-c3ccccc3O)nc2c1 (stereo not drawn) [Example 180]
> 10 | Cc1ccc2c(N3CC(C(=O)NCc4cccc(OC(F)(F)F)c4)C3)nc(-c3ccccc3O)nc2c1 [Example 403, N-(3-(Trifluoromethoxy)benzyl)-1-(2-(2-hydroxyphenyl)-7-methylquinazolin-4-yl)azetidine-3-carboxamide]
> 10 | Cc1ccc2c(N3CCN(C(=O)[C@H](O)CC(C)C)CC3)nc(-c3c(C)cccc3O)nc2c1 [Example 150, (R)-2-Hydroxy-1-(4-(2-(2-hydroxy-6-methylphenyl)-7-methylquinazolin-4-yl)piperazin-1-yl)-4-methylpentan-1-one]
> 10 | Cc1ccc2c(N3CC[C@@H](NC(=O)[C@H]4CCCO4)C3)nc(-c3ccccc3O)nc2c1 [Example 302, (R,R)-Tetrahydro-furan-2-carboxylic acid {1-[2-(2-hydroxy-phenyl)-7-methyl-quinazolin-4-yl]-pyrrolidin-3-yl}-amide]
< 2 | Cc1ccc2c(N3CCN(C(=O)C(=O)C(C)C)CC3)nc(-c3ccccc3O)nc2c1 [Example 186]
2 to 10 | Cc1ccc2c(N3CCC(NC(=O)OCC4CCCO4)CC3)nc(-c3ccccc3O)nc2c1 (stereo not drawn) [Example 274]
> 10 | Cc1ccc2c(N3CCN(C(=O)[C@H](O)CC(N)=O)CC3)nc(-c3ccccc3O)nc2c1 [Example 154, (R)-3-Hydroxy-4-(4-(2-(2-hydroxyphenyl)-7-methylquinazolin-4-yl)piperazin-1-yl)-4-oxobutanamide]
2 to 10 | Cc1ccc2c(N3CCC(CNC(=O)C(O)C(C)C)CC3)nc(-c3ccccc3O)nc2c1 (stereo not drawn) [Example 266]
> 10 | CNCC(=O)N(C)CC(=O)O[C@H](CC(C)C)C(=O)N1CCN(c2nc(-c3ccccc3O)nc3cc(C)ccc23)CC1 [Example 169, (R)-[Methyl-(2-methylamino-acetyl)-amino]-acetic acid 1-{4-[2-(2-hydroxy-phenyl)-7-methyl-quinazolin-4-yl]-piperazine-1-carbonyl}-3-methyl-butyl ester]
> 10 | CC[C@H](O)C(=O)NC1CCN(c2nc(-c3ccccc3O)nc3ccccc23)CC1 [Example 237, (2S)-2-Hydroxy-N-(1-(2-(2-hydroxyphenyl)quinazolin-4-yl)piperidin-4-yl)butanamide]
> 10 | Cc1ccc2c(N3CC[C@@H](NC(=O)c4cccnc4)C3)nc(-c3ccccc3O)nc2c1 [Example 328, N—((R)-1-(2-(2-Hydroxyphenyl)-7-methylquinazolin-4-yl)pyrrolidin-3-yl)nicotinamide]
2 to 10 | COCCOC(=O)NC[C@@H]1CCN(c2nc(-c3c(O)cccc3F)nc3cc(C)ccc23)C1 [Example 373, 2-Methoxyethyl ((S)-1-(2-(2-fluoro-6-hydroxyphenyl)-7-methylquinazolin-4-yl)pyrrolidin-3-yl)methylcarbamate]
> 10 | CC[C@H](O)C(=O)NC1CCN(c2nc(-c3ccccc3O)nc3cc(C)ccc23)CC1 [Example 244, (2S)-2-Hydroxy-N-(1-(2-(2-hydroxyphenyl)-7-methylquinazolin-4-yl)piperidin-4-yl)butanamide]
> 10 | Cc1ccc2c(N3CCN(C(=O)[C@H](O)CC(=O)N(C)C)CC3)nc(-c3ccccc3O)nc2c1 [Example 104, (R)-3-Hydroxy-4-(4-(2-(2-hydroxyphenyl)-7-methylquinazolin-4-yl)piperazin-1-yl)-N,N-dimethyl-4-oxobutanamide]
> 10 | Cc1ccc2c(N3CCC[C@H](NC(=O)[C@H]4CCCO4)C3)nc(-c3ccccc3O)nc2c1 [Example 205, (2R)-Tetrahydro-N—((S)-1-(2-(2-hydroxyphenyl)-7-methylquinazolin-4-yl)piperidin-3-yl)furan-2-carboxamide]
2 to 10 | Cc1ccc2c(N3CC[C@@H](NC(=O)C4CC4)C3)nc(-c3ccccc3O)nc2c1 [Example 312, (R)-Cyclopropanecarboxylic acid {1-[2-(2-hydroxy-phenyl)-7-methyl-quinazolin-4-yl]-pyrrolidin-3-yl}-amide]
